Laboratory results as given in publication PMC10135378, “Synthesis of Novel N-Heterocyclic Carbene-Ruthenium (II) Complexes, “Precious” Tools with Antibacterial, Anticancer and Antioxidant Properties” (Antibiotics, 2023).

Key:
human topoisomerase I = target: T1, human topoisomerase I (Homo sapiens, UniProt P11387); assay: hTopo I relaxation assay; type: biochemical; conditions: 10 µM, 2 h at 37 °C, supercoiled pHOT1 substrate
T1 construct: purchased TopoGEN, Port Orange, FL, USA
T1 sequence (P11387 1-765): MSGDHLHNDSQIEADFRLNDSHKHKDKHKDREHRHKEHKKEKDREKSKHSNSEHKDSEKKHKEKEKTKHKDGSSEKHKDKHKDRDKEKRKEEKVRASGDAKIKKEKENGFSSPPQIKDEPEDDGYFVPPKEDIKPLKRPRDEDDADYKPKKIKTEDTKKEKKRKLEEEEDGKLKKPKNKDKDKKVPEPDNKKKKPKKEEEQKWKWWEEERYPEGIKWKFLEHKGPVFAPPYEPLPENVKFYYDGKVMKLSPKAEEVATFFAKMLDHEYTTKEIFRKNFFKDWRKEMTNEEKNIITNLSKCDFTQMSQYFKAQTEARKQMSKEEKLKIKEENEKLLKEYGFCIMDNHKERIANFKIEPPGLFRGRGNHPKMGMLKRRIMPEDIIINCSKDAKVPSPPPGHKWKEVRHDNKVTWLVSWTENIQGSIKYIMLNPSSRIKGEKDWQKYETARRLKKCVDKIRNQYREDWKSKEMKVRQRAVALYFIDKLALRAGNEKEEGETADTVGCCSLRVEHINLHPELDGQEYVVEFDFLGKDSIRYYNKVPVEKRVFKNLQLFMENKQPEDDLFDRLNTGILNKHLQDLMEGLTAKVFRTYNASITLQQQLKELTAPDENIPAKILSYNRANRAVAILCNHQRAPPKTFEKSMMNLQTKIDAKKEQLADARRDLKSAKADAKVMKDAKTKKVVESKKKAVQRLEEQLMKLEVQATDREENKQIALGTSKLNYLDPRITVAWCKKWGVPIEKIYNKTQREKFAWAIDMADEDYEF
Description: We performed the hTopo I relaxation assay using as a substrate the supercoiled plasmid pHOT1 and exposing the enzyme to our selected complexes or vehicle. […] Indeed, in lanes 4 and 5, corresponding to the enzymatic reactions in the presence of complexes RANHC-V or -VI, only the supercoiled DNA was present, noticeable as a single band in the lower portion of the agarose gel. Contrarily, in the CTRL (vehicle) reaction (Figure 3, lane 3), multiple bands related to the relaxed DNA products were detected.
hTopoI relaxation assays were done using the supercoiled pHOT1 as substrate, with the recombinant hTopoI (TopoGEN, Port Orange, FL, USA) and compounds RANHC-V and -VI or DMSO (CTRL) following the manufacturer’s protocol (TopoGEN, Port Orange, FL, USA), with some changes.
Figure 3 Human topoisomerase I […] assay. hTopo I was incubated with the vehicle alone (CTRL) or with the tested complexes RANHC-V and -VI at 10 µM for 2 h at 37 °C, using the supercoiled DNA pHOT1 as substrate. 1, relaxed DNA marker; 2, pHOT1; 3, CTRL (DMSO); 4 and 5, Ru-NHC complexes RANHC-V and -VI (10 µM), respectively. The image is representative of three separate experiments.

MDA-MB-231 cells = assay: TUNEL assay, apoptosis; type: cell-based, human; conditions: complexes at their IC50 values, 24 h
Protocol: Thus, using the TUNEL assay we determined whether the Ru-NHC complexes RANHC-V and -VI were able to trigger apoptosis in the MDA-MB-231 cells. The latter were first exposed to the Ru complexes, used at their IC50 values for 24 h, and then subjected to the rTdT enzyme, as indicated in the experimental section.
A TUNEL assay was used for cells apoptosis detection, following the manufacturer’s protocols (CF™488A TUNEL Assay Apoptosis Detection Kit, Biotium, Hayward, CA, USA), with some changes. Briefly, cells were seeded and then processed, as described. DAPI (0.2 μg/mL, Sigma Aldrich, Milan, Italy) staining was adopted for nuclei. A fluorescence microscope (Leica DM 6000) was used for fluorescence detection (20x magnification). LAS-X software was used to acquire and process all the images that are representative of three different experiments.
Figure 5 TUNEL assay. MDA-MB-231 breast cancer cells were treated with Ru-NHC complexes RANHC-V and -VI at their IC50 values or with the vehicle (CTRL) for 24 h. Then, cells were incubated with rTdT enzyme and then observed and imaged under an inverted fluorescence microscope at 20× magnification (see Materials and Methods section). Panels (A): DAPI (λex/λem = 350/460 nm); Panels (B): CF^TM488A (λex/λem = 490/515 nm); Panels (C): show the overlay. Fields are representative of three independent experiments.

human topoisomerase II = target: T2, human topoisomerase II (Homo sapiens, UniProt P11388); assay: hTopo II decatenation assay; type: biochemical; conditions: 10 and 50 µM, 2 h at 37 °C, kDNA substrate
T2 construct: purchased TopoGEN, Port Orange, FL
Protocol: In Figure 4, only the results obtained at 50 μM concentration are reported (the same result was obtained at 10 μM) and as visible; under RANHC-V and -VI exposure, two bands related to the decatenation products at the bottom of the gel were detected (Figure 4, lanes 5 and 6), similarly to the CTRL reaction (Figure 4, lane 4).
Similarly, hTopoII decatenation assays were carried out incubating the kinetoplast DNA (kDNA) substrate with the hTopoII (TopoGEN, Port Orange, FL) and compounds RANHC-V and -VI or DMSO (CTRL) following the manufacturer’s procedures (TopoGEN, Port Orange, FL, USA), with some changes.
Figure 4 Human topoisomerase II decatenation assay. hTopo II was incubated with the vehicle alone (CTRL) or with the tested complexes RANHC-V and -VI at 50 µM for 2 h at 37 °C, using the kinetoplast DNA (kDNA) as the substrate. 1, linear DNA marker; 2, decatenated DNA marker; 3, kinetoplast DNA; 4, CTRL (DMSO); 5 and 6, Ru-NHC complexes RANHC-V and -VI (50 µM), respectively. The image is representative of three separate experiments.

T2 sequence (P11388 whole entry): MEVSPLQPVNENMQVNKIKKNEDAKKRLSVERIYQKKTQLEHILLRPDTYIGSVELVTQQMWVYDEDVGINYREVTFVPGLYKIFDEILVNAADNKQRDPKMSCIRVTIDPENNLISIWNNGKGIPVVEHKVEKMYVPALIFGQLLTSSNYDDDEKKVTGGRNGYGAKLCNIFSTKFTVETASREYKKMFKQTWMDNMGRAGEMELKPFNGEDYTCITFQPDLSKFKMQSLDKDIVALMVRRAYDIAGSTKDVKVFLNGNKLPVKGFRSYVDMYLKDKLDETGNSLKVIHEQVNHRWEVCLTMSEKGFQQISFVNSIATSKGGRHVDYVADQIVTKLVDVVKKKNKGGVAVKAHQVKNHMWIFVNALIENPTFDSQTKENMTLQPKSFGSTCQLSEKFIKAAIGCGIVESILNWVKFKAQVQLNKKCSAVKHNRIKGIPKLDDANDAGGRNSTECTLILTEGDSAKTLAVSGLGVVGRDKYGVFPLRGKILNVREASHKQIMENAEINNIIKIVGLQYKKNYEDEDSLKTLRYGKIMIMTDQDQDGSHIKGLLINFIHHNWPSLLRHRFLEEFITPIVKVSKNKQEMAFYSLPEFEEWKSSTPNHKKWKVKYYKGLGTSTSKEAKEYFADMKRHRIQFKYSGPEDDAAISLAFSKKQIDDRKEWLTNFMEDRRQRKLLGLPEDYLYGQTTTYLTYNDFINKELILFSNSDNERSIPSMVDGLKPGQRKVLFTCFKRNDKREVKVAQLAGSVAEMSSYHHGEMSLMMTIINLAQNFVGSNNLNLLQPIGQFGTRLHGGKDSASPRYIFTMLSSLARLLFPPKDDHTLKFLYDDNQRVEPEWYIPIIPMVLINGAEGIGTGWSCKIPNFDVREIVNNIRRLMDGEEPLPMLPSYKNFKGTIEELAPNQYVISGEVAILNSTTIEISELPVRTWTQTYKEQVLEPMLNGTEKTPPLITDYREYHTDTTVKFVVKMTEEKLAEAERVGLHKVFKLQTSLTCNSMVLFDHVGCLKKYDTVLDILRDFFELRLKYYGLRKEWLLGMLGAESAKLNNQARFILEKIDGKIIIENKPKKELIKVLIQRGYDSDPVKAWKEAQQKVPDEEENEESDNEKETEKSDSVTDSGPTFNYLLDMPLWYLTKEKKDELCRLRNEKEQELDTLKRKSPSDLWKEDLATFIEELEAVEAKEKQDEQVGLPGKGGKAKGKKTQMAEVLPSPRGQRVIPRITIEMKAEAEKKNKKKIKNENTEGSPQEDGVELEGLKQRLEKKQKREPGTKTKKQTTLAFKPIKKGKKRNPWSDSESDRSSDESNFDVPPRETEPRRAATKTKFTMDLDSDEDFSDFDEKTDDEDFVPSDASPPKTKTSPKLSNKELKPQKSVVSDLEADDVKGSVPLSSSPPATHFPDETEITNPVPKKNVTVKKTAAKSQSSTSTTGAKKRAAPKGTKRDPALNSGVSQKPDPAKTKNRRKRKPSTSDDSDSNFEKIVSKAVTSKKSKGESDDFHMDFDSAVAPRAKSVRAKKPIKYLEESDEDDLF

| Structure (SMILES) | inhibition of hTopo I activity (human topoisomerase I) | apoptosis (TUNEL) (MDA-MB-231 cells) | inhibition of hTopo II activity (human topoisomerase II) |
| --- | --- | --- | --- |
| COC(Cn1[c](=[Ru]([Cl])[Cl])n(C)c2ccccc21)c1ccccc1.Cc1ccc(C(C)C)cc1 (stereo not drawn) [RANHC-VI] | totally inhibit | TUNEL-positive | absence of any inhibitory activity |
| COC(Cn1c(Cl)c(Cl)n(C)[c]1=[Ru]([Cl])[Cl])c1ccccc1.Cc1ccc(C(C)C)cc1 (stereo not drawn) [RANHC-V] | totally inhibit | TUNEL-positive | absence of any inhibitory activity |
